Measurements: patent publication US7214495B2, “Screening method” (Takeda Pharmaceutical Company Limited, priority 2002, dated 2007)

Legend:
Type in all cases: cell-based
[1] = target: T1, human GPR40 (Homo sapiens, UniProt O14842); assay: EC50 by FLIPR calcium assay in CHO cells stably expressing human GPR40; conditions: intracellular calcium, FLIPR, stable CHO line; read-out: EC50 Human GPR40
T1 construct: The resulting fragment (ca. 1 kb) was introduced into vector pAKKO-111, which was used for transfection of CHO cells; expressed in transfected cells
T1 sequence (O14842 whole entry, the tested form may be a part): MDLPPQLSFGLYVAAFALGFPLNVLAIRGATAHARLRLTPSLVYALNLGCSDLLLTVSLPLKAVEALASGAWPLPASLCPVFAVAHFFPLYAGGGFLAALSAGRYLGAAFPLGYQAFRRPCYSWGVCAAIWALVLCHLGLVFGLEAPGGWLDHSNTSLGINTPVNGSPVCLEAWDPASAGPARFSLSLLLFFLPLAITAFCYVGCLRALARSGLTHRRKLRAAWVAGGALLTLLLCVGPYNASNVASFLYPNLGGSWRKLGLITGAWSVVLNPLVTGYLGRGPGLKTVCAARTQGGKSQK
Description: (§1) For determination of EC50 values, the CHO cell lines in which human-, mouse- and rat-derived GPR40 was stably expressed were used. Unless otherwise indicated, these CHO cell lines were incubated in α-MEM medium (Invitrogen) supplemented with 10% fetal calf serum (Invitrogen).
(§2) On the day before assay, the cells incubated to almost confluent stage were rinsed with PBS (Invitrogen), then scraped in 0.05% trypsin-EDTA solution (Invitrogen) and recovered by centrifugal operation. The number of the cells obtained was counted and diluted so as to contain 3×10^5 cells/1 mL of the medium. The dilution was dispensed in a Black welled 96-well plate (Coster) in 100 μL/well, followed by incubation overnight in a CO2 incubator. To the thus prepared CHO cells, various test samples were added and the changes in intracellular calcium level in this case were measured using FLIPR (Molecular Device). In order to determine the changes in the intracellular calcium ion level on FLIPR, the cells were pre-treated by the following procedures.
(§3) First, for the purpose of adding a fluorescent dye Fluo-3 AM (DOJIN) to the cells or washing the cells immediately before the FLIPR assay, an assay buffer was prepared. A solution obtained by adding 20 mL of 1M HEPES (pH 7.4) (DOJIN) to 1000 mL of HBSS (Invitrogen) was prepared (hereinafter HBSS/HEPES solution), to which 10 mL of a solution mixture obtained by dissolving 710 mg of Probenecid (Sigma) in 5 mL of 1N NaOH and further adding 5 mL of HBSS/HEPES solution was added. The resulting solution was used as the assay buffer. Next, 50 μg of Fluo-3AM was dissolved in 21 μL of DMSO (Wako) and an equal volume of 20% Pulronic acid (Molecular Probes) was added to and mixed with the solution. The mixture was then added to 10.6 mL of the assay buffer supplemented with 105 μL of fetal calf serum to prepare a fluorescent dye solution. […], the medium for the CHO cells again plated in a Black welled 96-well plate was removed. Immediately thereafter, the fluorescent dye solution was dispensed in 100 μL each/well and the cells were incubated in a CO2 incubator for an hour so that the fluorescent dye was taken up into the cells. The cells after the incubation was washed with the assay buffer described above and set on FLIPR. […] After the pre-treatment above was made, the changes in intracellular calcium level after the addition of various test samples were measured on FLIPR.

[2] = target: T2, Rat GPR40 (Rattus norvegicus, UniProt Q8K3T4); assay: EC50 by FLIPR calcium assay in CHO cells stably expressing rat GPR40; conditions: intracellular calcium, FLIPR, stable CHO line; read-out: EC50 Rat GPR40
T2 construct: expressed in transfected cells
T2 sequence (Q8K3T4 whole entry): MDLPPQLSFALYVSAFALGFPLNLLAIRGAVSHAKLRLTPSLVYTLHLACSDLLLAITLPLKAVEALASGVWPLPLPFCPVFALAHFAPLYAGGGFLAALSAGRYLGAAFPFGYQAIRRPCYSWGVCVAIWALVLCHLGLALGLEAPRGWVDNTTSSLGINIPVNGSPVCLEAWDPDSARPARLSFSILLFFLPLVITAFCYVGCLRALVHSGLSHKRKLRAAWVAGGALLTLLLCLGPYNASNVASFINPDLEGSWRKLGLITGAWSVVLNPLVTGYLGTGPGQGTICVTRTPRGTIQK
Description: as §1, §2, §3

[3] = target: T3, Mouse GPR40 (Mus musculus, UniProt Q76JU9); assay: EC50 by FLIPR calcium assay in CHO cells stably expressing mouse GPR40; conditions: intracellular calcium, FLIPR, stable CHO line; read-out: EC50 Mouse GPR40
T3 construct: expressed in transfected cells
T3 sequence (Q76JU9 whole entry): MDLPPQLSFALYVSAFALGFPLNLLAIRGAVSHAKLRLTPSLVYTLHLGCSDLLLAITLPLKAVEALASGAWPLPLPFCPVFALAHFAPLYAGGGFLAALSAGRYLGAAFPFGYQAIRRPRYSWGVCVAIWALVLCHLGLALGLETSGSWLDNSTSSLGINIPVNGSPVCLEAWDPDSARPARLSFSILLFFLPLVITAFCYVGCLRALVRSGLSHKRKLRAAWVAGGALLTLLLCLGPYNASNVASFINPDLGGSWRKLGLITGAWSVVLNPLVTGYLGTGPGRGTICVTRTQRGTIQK
Description: as §1, §2, §3

[4] = tested on: mouse pancreatic β cell line MIN6; assay: Insulin secretion from MIN6 in KRBH buffer (immunoassay); conditions: for insulin secretion enhancing activity: 22 mM glucose KRBH, 90 minutes; for insulin secretion activity in BSA-containing buffer / insulin secretion enhancing activity in buffer containing Nifedipine / insulin secretion enhancing activity in PD98059-containing buffer / insulin secretion enhancing activity, glucose dependency: 10 μM fatty acid; for insulin secretion activity in BSA-containing buffer: 0.1% fatty acid-free BSA; for insulin secretion enhancing activity in buffer containing Nifedipine: Nifedipine 10 μM; for insulin secretion enhancing activity in PD98059-containing buffer: PD98059 50 μM; for insulin secretion enhancing activity, glucose dependency: high glucose level conditions of at least 11 mM (0, 5.5, 11, 22 mM tested); for insulin secretion enhancing activity in buffer without Ca^2+ ions: 10 μM, no Ca^2+ ions, 0.1 mM EGTA, 22 mM glucose; for insulin secretion enhancing activity in m40i103-introduced MIN6: GPR40-specific siRNA m40i103 introduced; for insulin secretion enhancing activity in MIN6 introduced with Scramble II duplex siRNA: random siRNA control
Description: The mouse pancreatic β cell line MIN6 incubated in a flask was scraped in PBS containing 2.5 mM EDTA and plated in a 96-well plate followed by incubation for 2 days. The medium used was the same as in EXAMPLE 24, namely, 4.5 g/l of glucose-containing Dulbecco's Modified Eagle Medium (DMEM, Invitrogen, Inc.) supplemented with 15% fetal calf serum (ThermoTrace, Inc.), 5.5 μM 2-mercaptethanol (Invitrogen, Inc.), 20 mM HEPES pH 7.3, 100 U/ml penicillin and 100 μg/ml streptomycin. The cells were washed twice with modified Krebs-Ringer bicarbonate buffer (KRBH, 116 mM NaCl, 4.7 mM KCl, 1.2 mM KH2PO4, 1.2 mM MgSO4, 2.5 mM CaCl2, 25 mM NaHCO3, 24 mM HEPES, pH 7.3), followed by preincubation at 37° C. in 5% CO2 for 30 minutes. The fatty acid diluted/prepared using the aforesaid KRBH buffer added with 22 mM glucose was added to the cells after the preincubation, followed by incubation under the conditions of 37° C. in 5% CO2 for 90 minutes. After the incubation, the supernatant of the cells was recovered and stored in a frozen state. The insulin content in the supernatant was assayed using an insulin immunoassay kit commercially available (Amersham Pharmacia, Inc.).
Based on the method of EXAMPLE 25, effects of glucose level when added with fatty acids were examined. The level of glucose, which was added to KRBH upon the addition of fatty acids, was varied to 0, 5.5, 11 and 22 mM to study the effects.
The insulin secretion enhancing activity in the m40i103-introduced MIN6 cells using HVJ Envelope VECTOR KIT GenomONE based on the method of EXAMPLE 18 was examined. The insulin secretion enhancing activity by fatty acids was examined according to the method of EXAMPLE 25.
Based on the procedures of EXAMPLE 25, an essential prerequisite of Ca^2+ ions in the extracellular fluid was examined. In preincubation and incubation with a sample, Ca^2+ ions were removed and 0.1 mM EGTA, which was a reagent for chelating Ca^2+ ions, was further added, and then the insulin secretion enhancing activity by fatty acids was examined in this case.
Based on the method of EXAMPLE 25, effects of Ca^2+ channel blocker (Nifedipine) and MAP kinase inhibitor (PD98059) were examined. In preincubation and incubation with a sample, the insulin secretion enhancing activity by fatty acids was examined when Nifedipine (10 μM) or PD98059 (50 μM) was added.
It is known that fatty acids have the property of binding to albumin. Based on the method of EXAMPLE 25, effects were examined when bovine serum albumin (BSA) was present. In preincubation and incubation with a sample, the insulin secretion activity by fatty acids was examined when 0.1% BSA was added to the buffer.

[5] = target: T1, human GPR40; assay: cAMP production in human GPR40-expressed CHO cells; conditions: 10 minutes; for cAMP production activity, presence of forskolin: 2 μM forskolin
Description: Human and mouse GPR40-expressed CHO cells were incubated for 20 hours in a 96-well Plate at a density of 1×10^5/well. After the cells were washed twice with 100 μl of Assay Buffer (DMEM (Invitrogen) containing 0.1 mM IBMX (Wako Pure Chemical) and 0.1 mM Ro-20-1724 (Biomol)), DHA, solutions of linoleic acid and […] (both by SIGMA) in Assay Buffer in the presence or absence of 2 μM forskolin (Wako Pure Chemical) were added to the cells, followed by reacting at 37° C. for 10 minutes. After the reaction, the cells were lysed in accordance with the formulation of cAMP Screen (ABI) and the cAMP level in the cells was assayed.

## CC/C=C\C/C=C\C/C=C\C/C=C\C/C=C\C/C=C\CCC(=O)O [Docosahexaenoic acid (C22:6), 4Z,7Z,10Z,13Z,16Z,19Z-docosahexaenoic acid]
[1]
  EC50: 1.1 ± 0.3 µM
[2]
  EC50: 13 ± 1.7 µM
[3]
  EC50: 16 ± 4.7 µM
[4]
  insulin secretion enhancing activity: significantly noted
[5]
  cAMP production activity, presence of forskolin: weakly shown
  cAMP production activity, absence of forskolin: did not show any cAMP production activity

## CCCCC/C=C\C/C=C\C/C=C\C/C=C\CCCC(=O)O [Arachidonic acid (C20:4), Arachidonic acid]
[1]
  EC50: 2.4 ± 0.6 µM
[2]
  EC50: 8 ± 0.6 µM
[3]
  EC50: 5.4 ± 0.8 µM
[4]
  insulin secretion enhancing activity: significantly noted

## CCCCCCCC/C=C\CCCCCCCC(=O)O [Oleic acid (C18:1), Oleic acid]
[1]
  EC50: 2 ± 0.3 µM
[2]
  EC50: 3.4 ± 0.4 µM
[3]
  EC50: 2.7 ± 0.5 µM
[4]
  insulin secretion activity in BSA-containing buffer: almost suppressed
  insulin secretion enhancing activity in buffer containing Nifedipine: not appreciated
  insulin secretion enhancing activity in PD98059-containing buffer: same results as in ordinary buffer
  insulin secretion enhancing activity, glucose dependency: remarkable
  insulin secretion enhancing activity in buffer without Ca^2+ ions: not observed
  insulin secretion enhancing activity: significantly noted

## CCCCC/C=C\C/C=C\CCCCCCCC(=O)O [Linoleic acid (C18:2), Linoleic acid]
[1]
  EC50: 1.8 ± 0.1 µM
[2]
  EC50: 4.1 ± 0.5 µM
[3]
  EC50: 2.9 ± 0.3 µM
[4]
  insulin secretion activity in BSA-containing buffer: almost suppressed
  insulin secretion enhancing activity in buffer containing Nifedipine: not appreciated
  insulin secretion enhancing activity in PD98059-containing buffer: same results as in ordinary buffer
  insulin secretion enhancing activity, glucose dependency: remarkable
  insulin secretion enhancing activity in buffer without Ca^2+ ions: not observed
  insulin secretion enhancing activity: significantly noted
  insulin secretion enhancing activity in m40i103-introduced MIN6: no longer noted
  insulin secretion enhancing activity in MIN6 introduced with Scramble II duplex siRNA: retained
[5]
  cAMP production activity, presence of forskolin: weakly shown
  cAMP production activity, absence of forskolin: did not show any cAMP production activity

## CCCCC/C=C\C/C=C\C/C=C\CCCCC(=O)O [γ-Linolenic acid (C18:3), γ-Linolenic acid]
[1]
  EC50: 4.6 ± 1.6 µM
[2]
  EC50: 5.4 ± 1.1 µM
[3]
  EC50: 5.2 ± 0.6 µM
[4]
  insulin secretion enhancing activity in buffer without Ca^2+ ions: not observed
  insulin secretion enhancing activity: significantly noted
  insulin secretion enhancing activity in m40i103-introduced MIN6: no longer noted
  insulin secretion enhancing activity in MIN6 introduced with Scramble II duplex siRNA: retained
[5]
  cAMP production activity, presence of forskolin: weakly shown
  cAMP production activity, absence of forskolin: did not show any cAMP production activity
